Data reported in patent US7619005B2, “Methods for treating cognitive impairment in humans with Multiple Sclerosis” (Cognition Pharmaceuticals LLC, priority 2000, dated 2009).

What was measured:
normal subjects [1] = test: Phase I studies of l-methamphetamine: safety and tolerability
Long-Evans rats [2] = test: Water Maze acquisition; type: in vivo, rat; details: higher dose (0.5 mg/kg i.p.); p>0.05
Description: Water Maze testing (Morris, R., J. Neurosci Methods 11:47-60 (1984)) was conducted in a galvanized steel pool, painted white, measuring 180 cm in diameter and 60 cm in height. The pool was equipped with a removable circular platform (10 cm in diameter) made of clear Plexiglas. The pool was filled with water (26° C.) to a level of 1 cm above the surface of the platform. Nontoxic white paint was added to the water to obscure the platform's appearance. The pool was divided conceptually into four quadrants and the platform was located in the NW quadrant 30 cm from the pool wall. Extramaze cues were provided by large geometric shapes adhered to curtains that surrounded two sides of the pool, and by shelving units, a sink, and posters on the visible walls.
The training procedure involved placing the rat into the water, with the rat's head facing the wall of the pool, at one of four different starting points. The rat was allowed 60 seconds to locate the hidden platform. […] After 15 seconds spent on the platform at the end of each trial, the rat was removed from the pool and injected with saline or SN522 (0.25 and 0.5 mg/kg, i.p.). The rat was dried, and returned to its home cage. One trail was conducted each day for 10 days. The latency to reach the platform (escape latency) was recorded on each days training trial.

normal subjects [3] = test: CDR computerized cognitive assessment system, l-methamphetamine
Description: A randomized, double-blind, placebo-controlled, dose escalation study in human subjects, who were not suffering from an impairment in a memory or cognitive process (“normal subjects”), was conducted to assess the safety, tolerability and pharmacokinetics and improvement in cognitive processes, including memory, following the administration of l-methamphetamine (25 mg, 50 mg, 100 mg, 150 mg).
A selection of tasks from the CDR computerized cognitive assessment system was administered and parallel forms of the tests were presented on each testing session. […] All tasks were computer-controlled, the information was presented on high resolution screens, and the responses recorded via a response module containing two buttons, one marked ‘NO’ and the other ‘YES’. The tracking task additionally involved the use of a joystick. The test battery takes about 20-25 minutes to perform. The tests were administered in the following order: • Picture Presentation: A series of 20 pictures was presented on the screen at the rate of 1 every 3 seconds for the subject to remember. No data were recorded from this task. • Simple Reaction Time: The subject was instructed to press the ‘YES’ response button as quickly as possible every time the word ‘YES’ is presented on the screen. […] A series of digits was then presented in the center of the screen at the rate of 150 per minute and the subject was required to press the ‘YES’ button as quickly as possible every time the digit in the series matches the target digit. There were 45 targets in the series. The task lasted for 3 minutes. • Choice Reaction Time: Either the word ‘NO’ or the word ‘YES’ was presented on the screen and the subject was instructed to press the corresponding button as quickly as possible. There were 50 trials for which each stimulus word was chosen randomly with equal probability and there was a varying inter-stimulus interval. • Rapid Visual Information Processing: A series of digits was presented on the screen at the rate of 100 per minute. The subject had to detect targets consisting of consecutive sequences of either three odd digits or three even digits, and to report them by pressing the ‘YES’ button as quickly as possible. There were 32 targets. The task lasted for 4 minutes. • Tracking: The subject used a joystick to track a randomly moving target on the screen for one minute. The distance off-target per second was recorded. • Spatial Working Memory: A picture of a house was presented on the screen with four of its nine windows lit. The subject had to memorize the position of the lit windows. For each of the 36 subsequent presentations of the house, the subject was required to decide whether or not the one window that was lit was also lit in the original presentation. […]

Long-Evans rats [4] = test: Locomotor activity, activity monitoring chambers; type: in vivo, rat
Description: Activity monitoring was conducted in a Plexiglas open-field box measuring 30 by 30 cm. […] The location of the animal within the cage was detected by breaks in the infrared light beams. Light beams status information was collected and rapidly analyzed by a computerized activity monitoring system (VersaMax System, Accuscan Instruments.)
In order to determine whether SN522 had any adverse effects on locomotor or exploratory activity, rats were injected with saline or 0.25, 0.5, 2.5 and 5.0 mg/kg of SN522 and immediately afterwards placed into the activity monitoring chambers for a period of three hours.

normal subjects [5] = test: Phase I studies of l-methamphetamine: RAVLT word recall
scopolamine treated rats = test: Passive Avoidance in scopolamine treated rats (memory impairment); type: in vivo, rat
Long-Evans rats [6] = test: Tailflick test of analgesia (SN522); type: in vivo, rat; details: 0.25, 0.5, 2.5 and 5.0 mg/kg i.p.; 15, 30, 60 minutes
Description: The tail-flick response was assessed using a radiant heat tail flick monitor (Accuscan Instruments model TFS) equipped with a radiant heat element and two light beam sensors to detect tail movement.
In order to determine whether SN522 has any analgesic properties, rats (n=10 per treatment group) were injected with saline or SN522 (0.25, 0.5, 2.5 and 5.0 mg/kg, i.p.) and tested at four time points: immediately prior to injection, and again 15, 30, and 60 minutes following drug administration for a tail flick response (D'Amour, F. E., et al., J. Pharmacol. Exp. Ther. 72:174-179 (1941)). To test the tail-flick, the animal was placed on top of the Tail-Flick monitor and gently held in place with a cotton towel. The tail of the animal was placed in a shallow groove lying between the two sensors and over the top of the radiant heat wire. The heat element was activated, and the latency for the animal to flick its tail out of the groove and away from the heat source was automatically recorded via activation of the sensors. The intensity of the heat source was adjusted so that the animal flicked its tail within 3-4 seconds. A 10 second cutoff was imposed to avoid tissue damage. The animal was returned to its home cage immediately following testing.

Long-Evans rats [7] = test: Passive Avoidance test, injection immediately after training; details: i.p. immediately after training; p values=0.007 (C105), 0.0004 (d-amphetamine), 0.03 (SN522)

**Q.** With `CN[C@H](C)Cc1ccccc1` [SN522, levo-methamphetamine] as the compound, how does the tolerability (normal subjects [1]; 150 mg dose, a few subjects in the second Phase I trial) read?
**A.** The tolerability was “not well tolerated”.

**Q.** What about the tolerability (normal subjects [1]; first and second Phase I trials (1-100 mg)) of the same compound?
**A.** The tolerability was “generally well tolerated”.

**Q.** What about the “acquisition (escape latency) compared with saline group” value (Long-Evans rats [2]) of the same compound?
**A.** Its value is “did not reveal any statistical differences”.

**Q.** And the “Picture Recognition-Sensitivity Index vs placebo” value (normal subjects [3]; 25 mg (p=0.0177) and 150 mg (p=0.0254) (FIG. 36))?
**A.** The value was “significant benefits”.

**Q.** And the “Information Processing False Alarms vs placebo” value (normal subjects [3]; 50 mg (p=0.0002), 100 mg (p=0.0001) and 150 mg (p=0.0001) (FIG. 38))?
**A.** The value was “significant decrements against placebo”.

**Q.** What about the “Information Processing Targets Detected vs placebo” value (normal subjects [3]; 100 mg (p=0.0002) and 150 mg (p=0.0001) (FIG. 37)) of the same compound?
**A.** The value was “significant benefits”.

**Q.** And the “speed of response (Total Speed score)” value (normal subjects [3]; 25, 50, 100, 150 mg (FIG. 35))?
**A.** The value was “dose-dependent effect on speed of response”.

**Q.** What about the “activity relative to saline control” value (Long-Evans rats [4]; 0.5 mg/kg, p=0.028) of the same compound?
**A.** Its value is “only modest increases in activity”.

**Q.** And the “motor behavior (FIG. 23 description)” value (Long-Evans rats [4]; 0.25 and 0.5 mg/kg ip)?
**A.** The value was “no or modest changes in motor behavior”.

**Q.** What about the “activity relative to saline control” value (Long-Evans rats [4]; 2.5 and 5.0 mg/kg, p<0.001) of the same compound?
**A.** Its value is “small, but significant increases in activity”.

**Q.** And the “activity (FIG. 23 description)” value (Long-Evans rats [4]; doses ten times over the therapeutic doses (2.5, 5.0 mg/kg ip))?
**A.** The value was “only mild increases in activity”.

**Q.** What about the RAVLT memory scores (normal subjects [5]; first Phase I study (1, 4, 16, 32 mg)) of the same compound?
**A.** Its RAVLT memory scores is “No difference in memory scores”.

**Q.** And the “RAVLT mean values vs placebo” value (normal subjects [5]; second Phase I study (25, 50, 100 mg) (FIG. 34))?
**A.** Its value is “all dose groups have mean values greater than placebo at 30 minutes and 24 hours”.

**Q.** And the “performance vs animals treated with scopolamine and saline” value (scopolamine treated rats; 0.25, 0.5 and 1.0 mg/kg, p values=0.01, 0.04 and 0.007)?
**A.** Its value is “performed significantly better than animals treated with scopolamine and saline”.

**Q.** And the “alleviation of scopolamine impairment (step-through latency)” value (scopolamine treated rats; SN522 i.p. immediately after training, log rank p=0.02 (FIG. 32))?
**A.** Its value is “effective at alleviating the impairment in the scopolamine-injected animals”.

**Q.** What about the “pain sensitivity (tail flick latency)” value (Long-Evans rats [6]) of the same compound?
**A.** The value was “does not alter pain sensitivity”.

**Q.** And the “dose that significantly improved performance on the passive avoidance task” value (Long-Evans rats [7])?
**A.** The value was 0.5 mg/kg.
